Data taken from PubChem BioAssay (NCI).
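A five-concentration, 48-hour dose response in 96-well plates underlies each endpoint, interpolated linearly between surrounding concentrations. At the GI50, growth is halved. TGI marks complete inhibition of growth.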

What was measured:
Experiment in all cases: NCI-60 cell line screen, 48 h
[1] = system: 786-0 renal
[2] = system: A498 renal
[3] = system: A549 NSCLC
[4] = system: ACHN renal
[5] = system: BT-549 breast
[6] = system: CAKI-1 renal
[7] = system: CCRF-CEM leukemia
[8] = system: COLO 205 colon
[9] = system: DU-145 prostate
[10] = system: EKVX NSCLC
[11] = system: HCC-2998 colon
[12] = system: HCT-116 colon
[13] = system: HCT-15 colon
[14] = system: HL-60(TB) leukemia
[15] = system: HOP-62 NSCLC
[16] = system: HOP-92 NSCLC
[17] = system: HS 578T breast
[18] = system: HT29 colon
[19] = system: IGROV1 ovarian
[20] = system: K-562 leukemia
[21] = system: KM12 colon
[22] = system: LOX IMVI melanoma
[23] = system: M14 melanoma
[24] = system: MALME-3M melanoma
[25] = system: MCF7 breast
[26] = system: MDA-MB-231 breast
[27] = system: MDA-MB-435
[28] = system: MOLT-4 leukemia
[29] = system: NCI-H226 lung
[30] = system: NCI-H23 lung
[31] = system: NCI-H460 lung
[32] = system: NCI-H522 lung
[33] = system: NCI/ADR-RES ovarian
[34] = system: OVCAR-3 ovarian
[35] = system: OVCAR-4 ovarian
[36] = system: OVCAR-5 ovarian
[37] = system: OVCAR-8 ovarian
[38] = system: PC-3 prostate
[39] = system: RPMI-8226 leukemia
[40] = system: RXF 393 renal
[41] = system: SF-268 CNS
[42] = system: SF-295 CNS
[43] = system: SF-539 CNS
[44] = system: SK-MEL-2 melanoma
[45] = system: SK-MEL-28 melanoma
[46] = system: SK-OV-3 ovarian
[47] = system: SN12C renal
[48] = system: SNB-19 CNS
[49] = system: SNB-75 CNS
[50] = system: SR leukemia
[51] = system: SW-620 colon
[52] = system: T-47D breast
[53] = system: TK-10 renal
[54] = system: U251 CNS
[55] = system: UACC-257 melanoma
[56] = system: UACC-62 melanoma
[57] = system: UO-31 renal

Molecule Cc1ccc(CNc2ccc(Cl)cc2NCc2ccc(C)c(O)c2)cc1O has a GI50 [1] of 8.27 µM, a TGI [1] of 15.4 µM and a GI50 [2] of 8.55 µM. The TGI [2] was 16.1 µM, the GI50 [3] was 8.13 µM and the TGI [3] was 15.3 µM. It also gave a GI50 [4] of 6.19 µM, a TGI [4] of 12.6 µM and a GI50 [5] of 6.96 µM. The TGI [5] was 14.1 µM, the GI50 [6] was 7.39 µM and the TGI [6] was 14 µM. The GI50 [7] was 5.02 µM, the TGI [7] was 17.2 µM and the GI50 [8] was 8.01 µM. It also gave a TGI [8] of 15.9 µM, a GI50 [9] of 7.71 µM and a TGI [9] of 14.4 µM. It also gave a GI50 [10] of 8.14 µM, a TGI [10] of 15.4 µM and a GI50 [11] of 8.96 µM. The TGI [11] was 16.6 µM, the GI50 [12] was 7.78 µM and the TGI [12] was 14.6 µM. It also gave a GI50 [13] of 5.66 µM, a TGI [13] of 12.2 µM and a GI50 [14] of 7.65 µM. It also gave a TGI [14] of 19.2 µM, a GI50 [15] of 8.85 µM and a TGI [15] of 16.8 µM. For the same molecule, the GI50 [16] was 6.91 µM, the TGI [16] was 14.2 µM and the GI50 [17] was 7.73 µM. The TGI [17] was 24.6 µM, the GI50 [18] was 9.73 µM and the TGI [18] was 17.9 µM. It also gave a GI50 [19] of 8.66 µM, a TGI [19] of 18 µM and a GI50 [20] of 5.98 µM. For the same molecule, the TGI [20] was 18 µM, the GI50 [21] was 6.52 µM and the TGI [21] was 13.8 µM. It also gave a GI50 [22] of 6.93 µM, a TGI [22] of 13.5 µM and a GI50 [23] of 5.78 µM. The TGI [23] was 12.6 µM, the GI50 [24] was 6.2 µM and the TGI [24] was 14.7 µM. It also gave a GI50 [25] of 6.18 µM, a TGI [25] of 14.3 µM and a GI50 [26] of 5.63 µM. For the same molecule, the TGI [26] was 12.9 µM, the GI50 [27] was 6.7 µM and the TGI [27] was 13.1 µM. For the same molecule, the GI50 [28] was 3.34 µM, the TGI [28] was 14.7 µM and the GI50 [29] was 10 µM. For the same molecule, the TGI [29] was 22.1 µM, the GI50 [30] was 7.33 µM and the TGI [30] was 14.8 µM. The GI50 [31] was 8 µM, the TGI [31] was 15.9 µM and the GI50 [32] was 6.59 µM. The TGI [32] was 13.9 µM, the GI50 [33] was 8.3 µM and the TGI [33] was 17.8 µM. For the same molecule, the GI50 [34] was 7.15 µM, the TGI [34] was 13.9 µM and the GI50 [35] was 6.63 µM. For the same molecule, the TGI [35] was 14.4 µM, the GI50 [36] was 8.32 µM and the TGI [36] was 16.2 µM. It also gave a GI50 [37] of 8.66 µM, a TGI [37] of 18.4 µM and a GI50 [38] of 6.33 µM. For the same molecule, the TGI [38] was 13.3 µM, the GI50 [39] was 6.75 µM and the TGI [39] was 21.9 µM. It also gave a GI50 [40] of 7.5 µM, a TGI [40] of 14.5 µM and a GI50 [41] of 7 µM. The TGI [41] was 14.2 µM, the GI50 [42] was 8.24 µM and the TGI [42] was 15.2 µM. For the same molecule, the GI50 [43] was 7.31 µM, the TGI [43] was 14.4 µM and the GI50 [44] was 6.82 µM. The TGI [44] was 14.5 µM, the GI50 [45] was 7.21 µM and the TGI [45] was 14.2 µM. It also gave a GI50 [46] of 8.24 µM, a TGI [46] of 15.2 µM and a GI50 [47] of 6.95 µM. It also gave a TGI [47] of 14 µM, a GI50 [48] of 7.69 µM and a TGI [48] of 15.3 µM. It also gave a GI50 [49] of 5.47 µM, a TGI [49] of 12.1 µM and a GI50 [50] of 5.75 µM. For the same molecule, the TGI [50] was 18.2 µM, the GI50 [51] was 8.22 µM and the TGI [51] was 16.8 µM. For the same molecule, the GI50 [52] was 7.4 µM, the TGI [52] was 20.1 µM and the GI50 [53] was 8.4 µM. It also gave a TGI [53] of 15.5 µM, a GI50 [54] of 7.15 µM and a TGI [54] of 14.2 µM. The GI50 [55] was 8.12 µM, the TGI [55] was 15.6 µM and the GI50 [56] was 7.55 µM. For the same molecule, the TGI [56] was 14.5 µM, the GI50 [57] was 5.42 µM and the TGI [57] was 11.7 µM.
